{
  "source": "paper PMC9133015",
  "about": "(Nature Communications, 2022)",
  "test_in_all_cases": "Kinase inhibitor specificity profiling (Reaction Biology Corporation)",
  "assay_type_in_all_cases": "biochemical",
  "parameters_in_all_cases": "% Enzyme Activity (relative to DMSO controls): concentration or dose not given beside the values",
  "key": {"[1]": {"target": "T1, panel of 370 protein kinases (Homo sapiens, UniProt P49674)", "T1 construct": "purchased Reaction Biology Corporation (assay service)", "T1 sequence (P49674 whole entry)": "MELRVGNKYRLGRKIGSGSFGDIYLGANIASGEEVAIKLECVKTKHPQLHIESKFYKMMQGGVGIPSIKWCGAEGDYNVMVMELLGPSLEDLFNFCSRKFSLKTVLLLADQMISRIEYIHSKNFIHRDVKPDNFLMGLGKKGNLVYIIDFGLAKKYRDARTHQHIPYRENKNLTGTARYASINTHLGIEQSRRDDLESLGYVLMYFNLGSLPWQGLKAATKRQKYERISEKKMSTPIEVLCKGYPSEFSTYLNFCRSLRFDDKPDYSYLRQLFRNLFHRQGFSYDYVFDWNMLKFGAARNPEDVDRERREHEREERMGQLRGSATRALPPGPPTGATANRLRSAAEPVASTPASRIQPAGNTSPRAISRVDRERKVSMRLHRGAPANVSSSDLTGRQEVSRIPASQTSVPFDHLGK", "settings": "2 h, kinase CK1epsilon; read-out: % Enzyme Activity (relative to DMSO controls)"}, "[2]": {"target": "T2, panel of 370 protein kinases (Homo sapiens, UniProt Q9NYY3)", "T2 construct": "purchased Reaction Biology Corporation (assay service)", "T2 sequence (Q9NYY3 whole entry)": "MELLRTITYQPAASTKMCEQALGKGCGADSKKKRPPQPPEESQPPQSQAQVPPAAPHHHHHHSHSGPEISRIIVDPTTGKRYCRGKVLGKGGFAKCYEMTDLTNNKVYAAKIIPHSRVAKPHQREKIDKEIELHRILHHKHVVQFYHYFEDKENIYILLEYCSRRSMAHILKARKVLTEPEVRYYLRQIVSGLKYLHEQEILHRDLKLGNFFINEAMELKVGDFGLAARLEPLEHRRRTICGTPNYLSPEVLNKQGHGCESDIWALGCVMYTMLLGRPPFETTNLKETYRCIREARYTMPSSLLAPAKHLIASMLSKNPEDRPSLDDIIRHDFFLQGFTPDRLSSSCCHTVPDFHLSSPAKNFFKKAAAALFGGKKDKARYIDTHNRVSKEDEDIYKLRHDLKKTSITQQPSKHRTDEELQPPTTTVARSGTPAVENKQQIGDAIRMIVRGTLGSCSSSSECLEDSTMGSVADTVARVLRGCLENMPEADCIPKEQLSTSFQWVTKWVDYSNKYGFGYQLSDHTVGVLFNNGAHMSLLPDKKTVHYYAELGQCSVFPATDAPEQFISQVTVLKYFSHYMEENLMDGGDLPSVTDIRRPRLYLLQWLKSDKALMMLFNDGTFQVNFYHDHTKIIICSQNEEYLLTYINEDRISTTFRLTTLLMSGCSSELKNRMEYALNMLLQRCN", "settings": "kinase PLK2"}, "[3]": {"target": "T3, panel of 370 protein kinases (Homo sapiens, UniProt P78368)", "T3 construct": "purchased Reaction Biology Corporation (assay service)", "T3 sequence (P78368 whole entry)": "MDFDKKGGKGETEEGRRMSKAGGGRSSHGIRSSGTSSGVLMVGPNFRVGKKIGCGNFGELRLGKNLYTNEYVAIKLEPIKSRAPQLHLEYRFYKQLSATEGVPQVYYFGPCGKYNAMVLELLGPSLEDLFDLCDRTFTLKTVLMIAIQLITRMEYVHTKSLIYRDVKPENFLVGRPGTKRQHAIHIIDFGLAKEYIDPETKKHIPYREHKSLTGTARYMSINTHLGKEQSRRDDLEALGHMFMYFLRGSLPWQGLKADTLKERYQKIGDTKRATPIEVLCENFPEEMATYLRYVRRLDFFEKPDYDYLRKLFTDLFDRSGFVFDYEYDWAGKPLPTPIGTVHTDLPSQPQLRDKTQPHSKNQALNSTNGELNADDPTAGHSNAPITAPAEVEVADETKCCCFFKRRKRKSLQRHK", "settings": "kinase CK1g2"}, "[4]": {"target": "T4, panel of 370 protein kinases (Homo sapiens, UniProt Q9UBE8)", "T4 construct": "purchased Reaction Biology Corporation (assay service)", "settings": "2 h, kinase NLK; read-out: % Enzyme Activity (relative to DMSO controls)"}, "[5]": {"target": "T5, panel of 370 protein kinases (Homo sapiens, UniProt P54756)", "T5 construct": "purchased Reaction Biology Corporation (assay service)", "T5 sequence (P54756 25-1037)": "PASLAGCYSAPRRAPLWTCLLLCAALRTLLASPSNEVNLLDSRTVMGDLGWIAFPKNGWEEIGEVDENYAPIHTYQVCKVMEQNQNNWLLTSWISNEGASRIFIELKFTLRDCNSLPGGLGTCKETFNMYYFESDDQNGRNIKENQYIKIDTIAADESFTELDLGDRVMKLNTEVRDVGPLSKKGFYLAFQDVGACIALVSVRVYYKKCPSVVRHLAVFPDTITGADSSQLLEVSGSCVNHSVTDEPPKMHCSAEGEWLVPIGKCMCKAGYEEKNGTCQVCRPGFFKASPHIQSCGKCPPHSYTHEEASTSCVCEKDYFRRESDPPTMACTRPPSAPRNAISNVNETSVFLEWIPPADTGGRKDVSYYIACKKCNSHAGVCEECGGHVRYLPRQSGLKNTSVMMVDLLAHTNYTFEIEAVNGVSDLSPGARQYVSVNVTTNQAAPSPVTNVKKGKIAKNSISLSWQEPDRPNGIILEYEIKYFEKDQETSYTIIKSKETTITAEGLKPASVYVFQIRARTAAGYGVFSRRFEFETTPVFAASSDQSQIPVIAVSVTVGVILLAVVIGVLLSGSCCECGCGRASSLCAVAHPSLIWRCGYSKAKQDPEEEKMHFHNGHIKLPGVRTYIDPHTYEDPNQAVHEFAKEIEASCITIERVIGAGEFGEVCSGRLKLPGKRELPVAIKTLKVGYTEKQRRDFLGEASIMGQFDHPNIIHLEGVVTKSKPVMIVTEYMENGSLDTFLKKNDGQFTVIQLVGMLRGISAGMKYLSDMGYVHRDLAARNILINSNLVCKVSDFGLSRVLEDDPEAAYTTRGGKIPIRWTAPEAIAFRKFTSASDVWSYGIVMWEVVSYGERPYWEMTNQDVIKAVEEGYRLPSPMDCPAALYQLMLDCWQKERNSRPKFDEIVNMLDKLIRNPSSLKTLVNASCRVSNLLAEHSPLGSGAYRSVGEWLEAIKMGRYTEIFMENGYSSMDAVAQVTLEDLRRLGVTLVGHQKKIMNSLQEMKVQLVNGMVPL", "settings": "kinase EPHA5"}, "[6]": {"target": "T6, panel of 370 protein kinases (Homo sapiens, UniProt P24941)", "T6 construct": "purchased Reaction Biology Corporation (assay service)"}, "[7]": {"target": "T7, panel of 370 protein kinases (Homo sapiens, UniProt O15530)", "T7 construct": "purchased Reaction Biology Corporation (assay service)", "settings": "2 h, kinase PDK1/PDPK1; read-out: % Enzyme Activity (relative to DMSO controls)"}, "[8]": {"target": "T8, panel of 370 protein kinases (Homo sapiens, UniProt Q96NX5)", "T8 construct": "purchased Reaction Biology Corporation (assay service)", "settings": "2 h, kinase CAMK1g; read-out: % Enzyme Activity (relative to DMSO controls)"}, "[9]": {"target": "T9, panel of 370 protein kinases (Homo sapiens, UniProt Q08881)", "T9 construct": "purchased Reaction Biology Corporation (assay service)", "T9 sequence (Q08881 whole entry)": "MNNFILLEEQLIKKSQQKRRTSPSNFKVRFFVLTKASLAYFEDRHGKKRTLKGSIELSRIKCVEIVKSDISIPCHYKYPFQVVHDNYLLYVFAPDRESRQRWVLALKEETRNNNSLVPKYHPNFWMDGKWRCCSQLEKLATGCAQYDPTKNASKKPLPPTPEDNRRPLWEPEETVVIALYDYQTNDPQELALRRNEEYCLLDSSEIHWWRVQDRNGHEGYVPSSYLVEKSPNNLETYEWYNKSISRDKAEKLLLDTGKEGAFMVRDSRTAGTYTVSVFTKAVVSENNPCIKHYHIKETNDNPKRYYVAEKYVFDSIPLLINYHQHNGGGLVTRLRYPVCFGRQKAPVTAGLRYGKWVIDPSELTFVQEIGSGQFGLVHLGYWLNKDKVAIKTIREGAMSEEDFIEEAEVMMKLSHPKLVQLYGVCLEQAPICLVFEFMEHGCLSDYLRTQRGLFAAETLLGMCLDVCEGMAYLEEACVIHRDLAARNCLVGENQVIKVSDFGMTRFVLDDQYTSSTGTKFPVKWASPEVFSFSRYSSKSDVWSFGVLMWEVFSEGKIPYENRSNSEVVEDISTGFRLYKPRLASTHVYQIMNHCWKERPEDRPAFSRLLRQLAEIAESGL", "settings": "kinase ITK"}, "[10]": {"target": "T10, panel of 370 protein kinases (Homo sapiens, UniProt P57059)", "T10 construct": "purchased Reaction Biology Corporation (assay service)", "T10 sequence (P57059 whole entry)": "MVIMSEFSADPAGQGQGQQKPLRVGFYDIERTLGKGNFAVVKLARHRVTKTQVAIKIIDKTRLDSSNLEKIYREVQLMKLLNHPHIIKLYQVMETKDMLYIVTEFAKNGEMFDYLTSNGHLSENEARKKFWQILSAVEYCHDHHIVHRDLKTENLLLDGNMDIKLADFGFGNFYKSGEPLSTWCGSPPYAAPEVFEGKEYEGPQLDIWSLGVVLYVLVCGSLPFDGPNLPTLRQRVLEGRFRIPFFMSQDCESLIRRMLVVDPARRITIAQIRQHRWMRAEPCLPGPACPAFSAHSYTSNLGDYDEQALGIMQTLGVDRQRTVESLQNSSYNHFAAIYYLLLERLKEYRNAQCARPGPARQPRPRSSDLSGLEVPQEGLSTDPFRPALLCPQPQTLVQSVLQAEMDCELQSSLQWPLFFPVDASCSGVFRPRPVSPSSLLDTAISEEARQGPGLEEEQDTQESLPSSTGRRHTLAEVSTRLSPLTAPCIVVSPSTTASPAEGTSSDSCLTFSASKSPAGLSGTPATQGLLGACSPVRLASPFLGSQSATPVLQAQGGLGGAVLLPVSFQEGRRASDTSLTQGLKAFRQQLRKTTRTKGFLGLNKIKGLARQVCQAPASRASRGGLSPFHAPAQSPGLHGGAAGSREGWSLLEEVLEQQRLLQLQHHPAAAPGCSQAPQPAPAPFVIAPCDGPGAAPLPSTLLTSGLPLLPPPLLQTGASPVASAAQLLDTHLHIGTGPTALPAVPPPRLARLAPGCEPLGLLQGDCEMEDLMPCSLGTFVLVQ", "settings": "kinase SIK1"}, "[11]": {"target": "T11, panel of 370 protein kinases (Homo sapiens, UniProt Q99986)", "T11 construct": "purchased Reaction Biology Corporation (assay service)", "T11 sequence (Q99986 whole entry)": "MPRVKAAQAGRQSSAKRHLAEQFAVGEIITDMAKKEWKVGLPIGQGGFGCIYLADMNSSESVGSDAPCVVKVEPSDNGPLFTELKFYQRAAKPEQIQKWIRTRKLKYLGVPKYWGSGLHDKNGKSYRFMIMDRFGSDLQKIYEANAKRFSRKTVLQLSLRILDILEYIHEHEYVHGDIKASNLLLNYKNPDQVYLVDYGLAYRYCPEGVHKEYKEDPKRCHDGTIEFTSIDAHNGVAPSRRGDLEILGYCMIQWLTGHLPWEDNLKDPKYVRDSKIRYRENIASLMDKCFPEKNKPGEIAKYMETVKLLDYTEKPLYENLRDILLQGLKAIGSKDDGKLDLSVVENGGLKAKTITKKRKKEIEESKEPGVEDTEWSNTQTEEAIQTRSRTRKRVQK", "settings": "kinase VRK1"}, "[12]": {"target": "T12, panel of 370 protein kinases (Homo sapiens, UniProt Q9HBY8)", "T12 construct": "purchased Reaction Biology Corporation (assay service)", "settings": "2 h, kinase SGK2; read-out: % Enzyme Activity (relative to DMSO controls)"}, "[13]": {"target": "T13, panel of 370 protein kinases (Homo sapiens, UniProt O60307)", "T13 construct": "purchased Reaction Biology Corporation (assay service)", "settings": "2 h, kinase MAST3; read-out: % Enzyme Activity (relative to DMSO controls)"}, "[14]": {"target": "T14, panel of 370 protein kinases (Homo sapiens, UniProt Q9H1R3)", "T14 construct": "purchased Reaction Biology Corporation (assay service)", "settings": "2 h, kinase MLCK2/MYLK2; read-out: % Enzyme Activity (relative to DMSO controls)"}, "[15]": {"target": "T15, panel of 370 protein kinases (Homo sapiens, UniProt P36894)", "T15 construct": "purchased Reaction Biology Corporation (assay service)", "settings": "2 h, kinase ALK3/BMPR1A; read-out: % Enzyme Activity (relative to DMSO controls)"}, "[16]": {"target": "T16, panel of 370 protein kinases (Homo sapiens, UniProt P53671)", "T16 construct": "purchased Reaction Biology Corporation (assay service)", "settings": "2 h, kinase LIMK2; read-out: % Enzyme Activity (relative to DMSO controls)"}, "[17]": {"target": "T17, panel of 370 protein kinases (Homo sapiens, UniProt Q13153)", "T17 construct": "purchased Reaction Biology Corporation (assay service)", "settings": "2 h, kinase PAK1; read-out: % Enzyme Activity (relative to DMSO controls)"}, "[18]": {"target": "T18, panel of 370 protein kinases (Homo sapiens, UniProt Q52WX2)", "T18 construct": "purchased Reaction Biology Corporation (assay service)", "settings": "2 h, kinase SBK1; read-out: % Enzyme Activity (relative to DMSO controls)"}, "[19]": {"target": "T19, panel of 370 protein kinases (Homo sapiens, UniProt P45984)", "T19 construct": "purchased Reaction Biology Corporation (assay service)", "T19 sequence (P45984 whole entry)": "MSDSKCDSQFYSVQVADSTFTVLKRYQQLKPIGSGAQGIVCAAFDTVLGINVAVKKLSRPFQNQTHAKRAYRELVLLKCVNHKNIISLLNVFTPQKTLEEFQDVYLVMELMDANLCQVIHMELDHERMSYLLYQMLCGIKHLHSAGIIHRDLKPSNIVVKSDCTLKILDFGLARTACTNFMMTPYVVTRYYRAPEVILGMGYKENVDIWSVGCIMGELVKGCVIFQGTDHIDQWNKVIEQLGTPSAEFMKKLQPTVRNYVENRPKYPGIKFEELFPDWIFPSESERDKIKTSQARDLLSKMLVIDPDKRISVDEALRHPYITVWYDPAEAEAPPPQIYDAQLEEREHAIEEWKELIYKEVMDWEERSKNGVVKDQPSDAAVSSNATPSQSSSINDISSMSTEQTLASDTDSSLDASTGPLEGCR", "settings": "kinase JNK2"}, "[20]": {"target": "T20, panel of 370 protein kinases (Homo sapiens, UniProt P51955)", "T20 construct": "purchased Reaction Biology Corporation (assay service)", "settings": "2 h, kinase NEK2; read-out: % Enzyme Activity (relative to DMSO controls)"}, "[21]": {"target": "T21, panel of 370 protein kinases (Homo sapiens, UniProt Q9BYT3)", "T21 construct": "purchased Reaction Biology Corporation (assay service)", "settings": "2 h, kinase STK33; read-out: % Enzyme Activity (relative to DMSO controls)"}, "[22]": {"target": "T22, panel of 370 protein kinases (Homo sapiens, UniProt P51451)", "T22 construct": "purchased Reaction Biology Corporation (assay service)", "settings": "2 h, kinase BLK; read-out: % Enzyme Activity (relative to DMSO controls)"}},
  "note": "Several values for one entry are separate records, joined by “and”; a condition that tells them apart may be missing. Equal entries are not always repeated.",
  "data": [
    {"smiles": "CCN1CCN(C(=O)c2ccc(Nc3ncc(F)c(-c4ccc5nc(N(C)C)sc5c4)n3)nc2)CC1", "note": "[YK-2-69]", "values": [
      {"measurement": "remaining activity at 1 µM", "setting": "[1]", "result": 111, "unit": "%"},
      {"measurement": "% Enzyme Activity (relative to DMSO controls)", "setting": "[2]", "result": "98.55% and 92.68%"},
      {"measurement": "% Enzyme Activity (relative to DMSO controls)", "setting": "[3]", "result": "92.19% and 91.13%"},
      {"measurement": "remaining activity at 1 µM", "setting": "[4]", "result": 97, "unit": "%"},
      {"measurement": "% Enzyme Activity (relative to DMSO controls)", "setting": "[5]", "result": "97.73% and 95.85%"},
      {"measurement": "% Enzyme Activity (relative to DMSO controls)", "setting": "[6]; kinase CDK2/CYCLIN A", "result": "90.79% and 87.87%"},
      {"measurement": "% Enzyme Activity (relative to DMSO controls)", "setting": "[6]; kinase CDK2/CYCLIN E", "result": "95.30% and 94.87%"},
      {"measurement": "% Enzyme Activity (relative to DMSO controls)", "setting": "[6]; kinase CDK2/Cyclin A1", "result": "80.25% and 75.26%"},
      {"measurement": "% Enzyme Activity (relative to DMSO controls)", "setting": "[6]; kinase CDK2/cyclin E2", "result": "104.31% and 100.73%"},
      {"measurement": "% Enzyme Activity (relative to DMSO controls)", "setting": "[6]; kinase CDK2/cyclin O", "result": "78.97% and 75.52%"},
      {"measurement": "remaining activity at 1 µM", "setting": "[7]", "result": 100, "unit": "%"},
      {"measurement": "remaining activity at 1 µM", "setting": "[8]", "result": 56.8, "unit": "%"},
      {"measurement": "% Enzyme Activity (relative to DMSO controls)", "setting": "[9]", "result": "117.90% and 109.49%"},
      {"measurement": "% Enzyme Activity (relative to DMSO controls)", "setting": "[10]", "result": "99.48% and 98.60%"},
      {"measurement": "% Enzyme Activity (relative to DMSO controls)", "setting": "[11]", "result": "95.92% and 87.82%"},
      {"measurement": "remaining activity at 1 µM", "setting": "[12]", "result": 97.5, "unit": "%"},
      {"measurement": "remaining activity at 1 µM", "setting": "[13]", "result": 88.1, "unit": "%"},
      {"measurement": "remaining activity at 1 µM", "setting": "[14]", "result": 78.7, "unit": "%"},
      {"measurement": "remaining activity at 1 µM", "setting": "[15]", "result": 168, "unit": "%"},
      {"measurement": "remaining activity at 1 µM", "setting": "[16]", "result": 95, "unit": "%"},
      {"measurement": "remaining activity at 1 µM", "setting": "[17]", "result": 89.2, "unit": "%"},
      {"measurement": "remaining activity at 1 µM", "setting": "[18]", "result": 103, "unit": "%"},
      {"measurement": "% Enzyme Activity (relative to DMSO controls)", "setting": "[19]", "result": "83.83% and 82.64%"},
      {"measurement": "remaining activity at 1 µM", "setting": "[20]", "result": 94.2, "unit": "%"},
      {"measurement": "remaining activity at 1 µM", "setting": "[21]", "result": 80.1, "unit": "%"},
      {"measurement": "remaining activity at 1 µM", "setting": "[22]", "result": 100, "unit": "%"}
    ]}
  ]
}
